Measurements from US8119690B2, “Polyunsaturated fatty acid monoglycerides, derivatives, and uses thereof” (Centre de Recherche sur les Biotechnologies Marines, priority 2007, dated 2012).

Assays:
[1] = human, in vivo
Method: Controlled amount of boiled pasta was eaten after the 4 h time point. An initial blood sample (400 μl) was collected using a lancet at a fingertip into heparin tubes followed by samples at 1, 2, 3, 4, 5, 6, 7 and 8 hour after ingestion. Plasma was separated and immediately analysed for fatty acid composition.
The relative bioavailability of fatty acids from composition 2 compared to fish oil is calculated with the formula:
The AUC (calculates area under the curve for concentration vs. time data) is calculated using linear trapezoidal rule. […] The relative bioavailability of compound 1 and compound 5 is calculated with the same formula:

TNF-α = assay: LPS-induced TNF-α release by THP-1 monocyte cells (ELISA); format: cell-based, human; settings: THP-1 cells, 100 ng/ml LPS, 4 hours; vehicle gives 400 pg/ml; composition 3 10 μg/ml, curcumin 5 μg/ml
Method: Composition 3 (comprising compounds 1 (11%) and 5 (89%)) at final concentration of 10 μg/ml, curcumin (5 μg/ml) and a 1:1 mixture of composition 3 (10 μg/ml) and curcumin (5 μg/ml) in DMSO (1%) was used for the in vitro assay. Composition 3 prepared according to the same procedure as previously described in Example 2)
The in vitro assay allows evaluation of the potential anti-inflammatory effects of compounds on the induced-release of pro-inflammatory mediator by monocyte cells. Typical human monocyte THP-1 cells, involved in inflammatory processes, are used in this assay. Measurement of pro-inflammatory mediator TNF-α is performed by ELISA (manufactured by R&D Systems) with artificial induction of pro-inflammatory agents by LPS (E. Coli O55:B5) during 4 hours. Known anti-inflammatory agent dexametazone was used as positive control.

[2] = system: A-549 human lung cancer cell line; assay: in vitro cell viability assay (SRB), A-549; format: cell-based; settings: A549, A-549, at 294 μg/ml, 72 hours, read-out: growth inhibition
Method: (§1) The cell viability assay is performed to measure the relative cell viability status of cancer cells upon exposure to test compounds in comparison to a positive control (etoposide) and a negative control (vehicule). Adherent cells growing in 96-well plates are exposed to test compounds for 3 days (72 hours). […] Test compounds (composition 1 comprising compounds 1, 5 and 6) as well as positive and negative controls were tested in parallel on the same culture plate. All conditions are tested in triplicate. […] Inhibition of 50% of cell growth compared to basal condition is the lower limit indicating a positive biological response (considered as a hit). After the incubation time, total protein content is quantified following staining with the anionic dye sulforhodamine B (SRB). The detection of […], is completed by a microplate reader. […] The amount of […] is directly proportional to the number of living cells in culture. […] Cells were trypsinized using 0.25% trypsine (w/v)/0.53 mM EDTA solution (Hyclone), counted and plated at densities between 1000 and 3000 cells per well in flat bottom 96-well clear plates (Becton Dickinson) in 100 μl of appropriate culture medium supplemented with fetal bovine serum (Hyclone). […] Absorbance was read at 515 nm using a 96-well plate Multiskan Spectrum […] (Thermo Electron Corporation). […]

[3] = system: PC-3 human prostate cancer cell line; assay: in vitro cell viability assay (SRB), PC-3; format: cell-based; settings: PC-3, at 294 μg/ml, 72 hours, read-out: growth inhibition
Method: as §1

[4] = system: HCT-15 human colon cancer cell line; assay: in vitro cell viability assay (SRB), HCT-15; format: cell-based; settings: HCT-15, at 294 μg/ml, 72 hours, read-out: growth inhibition
Method: as §1

[5] = system: BT-549 human breast cancer cell line; assay: in vitro cell viability assay (SRB), BT-549; format: cell-based; settings: BT-549, at 294 μg/ml, 72 hours, read-out: growth inhibition
Method: as §1

Which “relative bioavailability compared to compound 5” value [1] does the source give for CC/C=C\C/C=C\C/C=C\C/C=C\C/C=C\CCCCCC(=O)OCC(O)CO (stereo not shown) [compound 1] here?
Its value is 2.20.

Which TNF-α measured (TNF-α) does the source give for COc1cc(/C=C/C(=O)CC(=O)/C=C/c2ccc(O)c(OC)c2)ccc1O [curcumin] here?
Its TNF-α measured is 100 pg/mL.

Which TNF-α measured (TNF-α) does the source give for C[C@@H]1C[C@H]2[C@@H]3CCC4=CC(=O)C=C[C@]4(C)[C@@]3(F)[C@@H](O)C[C@]2(C)[C@@]1(O)C(=O)CO [dexametazone] here?
Its TNF-α measured is 125 pg/mL.

With COc1cc([C@@H]2c3cc4c(cc3[C@@H](O[C@@H]3O[C@@H]5CO[C@@H](C)O[C@H]5[C@H](O)[C@H]3O)[C@H]3COC(=O)[C@H]23)OCO4)cc(OC)c1O [etoposide] as the compound, how does the inhibition at 294 µg/mL [2] read?
Its inhibition at 294 µg/mL is 100%.

And the inhibition at 294 µg/mL [3]?
Its inhibition at 294 µg/mL is 100%.

And the inhibition at 294 µg/mL [4]?
The inhibition at 294 µg/mL was 100%.

What about the inhibition at 294 µg/mL [5] of the same compound?
Its inhibition at 294 µg/mL is 100%.
